Experimental data from patent US20230391763A1, “MODULATORS OF THE INTEGRATED STRESS RESPONSE PATHWAY” (Evotec International GmbH, priority 2020, published 2023).

Test system: Tunicamycin induced ISR (ATF4 signal ratio between nucleus and cytoplasm) in wild-type HEK293 cells
Assay: HEK-ATF4 High Content Imaging assay
Format: cell-based
Settings: Homo sapiens, prevention of Tunicamycin induced ISR, 6 h incubation, ATF4 immunofluorescence nucleus/cytoplasm ratio
Procedure: HEK-ATF4 High Content Imaging Assay
Example compounds were tested in the HEK-ATF4 High Content Imaging assay to assess their pharmacological potency to prevent Tunicamycin induced ISR. Wild-type HEK293 cells were plated in 384-well imaging assay plates at a density of 12,000 cells per well in growth medium (containing DMEM/F12, 10% FBS, 2 mM L-Glutamine, 100 U/mL Penicillin—100 μg/mL Streptomycin) and incubated at 37° C., 5% CO2. 24 h later, the medium was changed to 50 μL assay medium per well (DMEM/F12, 0.3% FBS, 2 mM L-Glutamine, 100 U/mL Penicillin—100 μg/mL Streptomycin). Example compounds were serially diluted in DMSO, spotted into intermediate plates and prediluted with assay medium containing 3.3 μM Tunicamycin to give an 11-fold excess of final assay concentration. In addition to the example compound testing area, the plates also contained multiples of control wells for assay normalization purposes, wells containing Tunicamycin but no example compounds (High control), as well as wells containing neither example compound nor Tunicamycin (Low control). The assay was started by transferring 5 μL from the intermediate plate into the assay plates, followed by incubation for 6 h at 37° C., 5% CO2. Subsequently, cells were fixed (4% PFA in PBS, 20 min at r.t.) and submitted to indirect ATF4 immunofluorescence staining (primary antibody rabbit anti ATF4, clone D4B8, Cell Signaling Technologies; secondary antibody Alexa Fluor 488 goat anti-rabbit IgG (H+L), Thermofisher Scientific). Nuclei were stained using Hoechst dye (Thermofisher Scientific), and plates were imaged on an Opera Phenix High Content imaging platform equipped with 405 nm and 488 nm excitation. Finally, images were analyzed using script based algorithms. The main readout HEK-ATF4 monitored the ATF4 signal ratio between nucleus and cytoplasm. Tunicamycin induced an increase in the overall ATF4 ratio signal, which was prevented by ISR modulating example compounds. In addition, HEK-CellCount readout was derived from counting the number of stained nuclei corresponding to healthy cells. This readout served as an internal toxicity control.

In the case of O=C(N[C@H]1CC[C@H](c2nnc(OCCOC(F)(F)F)o2)NC1)c1cc(F)c(Cl)c(F)c1 [Example 32, 4-chloro-3,5-difluoro-N-[(3S,6R)-6-{5-[2-(trifluoromethoxy)ethoxy]-1,3,4-oxadiazol-2-yl}piperidin-3-yl]benzamide], the IC50 is reported as 2000 to 15000 nM.
O=C(N[C@H]1CC[C@H](c2nnc(OCCOC(F)(F)F)o2)NC1)c1ccc(C(F)(F)F)c(F)c1 [Example 33, 3-fluoro-N-[(3S,6R)-6-{5-[2-(trifluoromethoxy)ethoxy]-1,3,4-oxadiazol-2-yl}piperidin-3-yl]-4-(trifluoromethyl)benzamide] was tested, and the IC50 was 500 to 2000 nM.
With O=C(N[C@H]1CC[C@H](c2nnc(OCCOC(F)(F)F)o2)NC1)c1ccc(OC(F)(F)F)c(Cl)c1 [Example 34, 3-chloro-4-(trifluoromethoxy)-N-[(3S,6R)-6-{5-[2-(trifluoromethoxy)ethoxy]-1,3,4-oxadiazol-2-yl}piperidin-3-yl]benzamide] the IC50 was 500 to 2000 nM.
O=C(N[C@H]1CC[C@H](c2nnc(OCCOC(F)(F)F)o2)NC1)c1ccc(F)c(C(F)(F)F)c1 [Example 35, 4-fluoro-N-[(3S,6R)-6-{5-[2-(trifluoromethoxy)ethoxy]-1,3,4-oxadiazol-2-yl}piperidin-3-yl]-3-(trifluoromethyl)benzamide] showed an IC50 of 2000 to 15000 nM.
O=C(N[C@H]1CC[C@H](c2nnc(OCCOC(F)(F)F)o2)NC1)c1ccc(C(F)(F)F)c(Cl)c1 [Example 36, 3-chloro-N-[(3S,6R)-6-{5-[2-(trifluoromethoxy)ethoxy]-1,3,4-oxadiazol-2-yl}piperidin-3-yl]-4-(trifluoromethyl)benzamide] showed an IC50 of 2000 to 15000 nM.
O=C(N[C@H]1CC[C@H](c2nnc(OCCOC(F)(F)F)o2)NC1)c1ccc(Cl)c(C(F)(F)F)c1 [Example 37, 4-chloro-N-[(3S,6R)-6-{5-[2-(trifluoromethoxy)ethoxy]-1,3,4-oxadiazol-2-yl}piperidin-3-yl]-3-(trifluoromethyl)benzamide] gave an IC50 of 2000 to 15000 nM.
O=C(N[C@H]1CC[C@H](c2nnc(OCCOC(F)(F)F)o2)NC1)c1cc(Cl)c(Cl)cn1 [Example 38, 4,5-dichloro-N-[(3S,6R)-6-{5-[2-(trifluoromethoxy)ethoxy]-1,3,4-oxadiazol-2-yl}piperidin-3-yl]pyridine-2-carboxamide] was tested, and the IC50 was 2000 to 15000 nM.
Work on O=C(N[C@H]1CC[C@H](c2nnc(OCCOC(F)(F)F)o2)NC1)c1ccc(Cl)c(Cl)n1 [Example 39, 5,6-dichloro-N-[(3S,6R)-6-{5-[2-(trifluoromethoxy)ethoxy]-1,3,4-oxadiazol-2-yl}piperidin-3-yl]pyridine-2-carboxamide] yielded an IC50 of 2000 to 15000 nM.
Work on O=C(N[C@H]1CC[C@H](c2nnc(OCCOC(F)(F)F)o2)NC1)c1ccc(Cl)c(OC(F)(F)F)c1 [Example 40, 4-chloro-3-(trifluoromethoxy)-N-[(3S,6R)-6-{5-[2-(trifluoromethoxy)ethoxy]-1,3,4-oxadiazol-2-yl}piperidin-3-yl]benzamide] yielded an IC50 of 2000 to 15000 nM.
Cn1c(C(=O)N[C@H]2CC[C@H](c3nnc(OCCOC(F)(F)F)o3)NC2)cc2ccc(C(F)(F)F)cc21 [Example 42, 1-methyl-N-[(3S,6R)-6-[5-[2-(trifluoromethoxy)ethoxy]-1,3,4-oxadiazol-2-yl]-3-piperidyl]-6-(trifluoromethyl)indole-2-carboxamide] was tested, and the IC50 was 500 to 2000 nM.
Cc1ccc(C(=O)N[C@H]2CC[C@H](c3nnc(OCCOC(F)(F)F)o3)NC2)cc1Cl [Example 44, 3-chloro-4-methyl-N-[(3S,6R)-6-[5-[2-(trifluoromethoxy)ethoxy]-1,3,4-oxadiazol-2-yl]-3-piperidyl]benzamide] gave an IC50 of 500 to 2000 nM.
Compound O=C(N[C@H]1CC[C@H](c2nnc(-c3ccc(Cl)cc3)o2)NC1)c1cnc2cc(Cl)ccc2c1 [Example 46, 7-chloro-N-[(3S,6R)-6-[5-(4-chlorophenyl)-1,3,4-oxadiazol-2-yl]-3-piperidyl]quinoline-3-carboxamide] has an IC50 of 1 to 500 nM.
Compound O=C(N[C@H]1CC[C@H](c2nnc(OC/C=C/C(F)(F)F)o2)NC1)c1cnc2cc(Cl)ccc2c1 [Example 48, 7-chloro-N-[(3S,6R)-6-[5-[(E)-4,4,4-trifluorobut-2-enoxy]-1,3,4-oxadiazol-2-yl]-3-piperidyl]quinoline-3-carboxamide] has an IC50 of 1 to 500 nM.
In the case of O=C(N[C@@H]1CC[C@@H](c2nnc(OCCOC(F)(F)F)o2)NC1)c1cnc2cc(Cl)ccc2c1 [Example 49, 7-chloro-N-[(3R,6S)-6-[5-[2-(trifluoromethoxy)ethoxy]-1,3,4-oxadiazol-2-yl]-3-piperidyl]quinoline-3-carboxamide], the IC50 is reported as 1 to 500 nM.
O=C(N[C@H]1CC[C@H](c2nnc([C@H]3C[C@@H](OC(F)(F)F)C3)o2)NC1)c1cnc2cc(Cl)ccc2c1 [Example 51, 7-chloro-N-[(3S,6R)-6-{5-[(1s,3s)-3-(trifluoromethoxy)cyclobutyl]-1,3,4-oxadiazol-2-yl}piperidin-3-yl]quinoline-3-carboxamide] was tested, and the IC50 was 1 to 500 nM.
O=C(N[C@@H]1CC[C@@H](c2nnc([C@H]3C[C@@H](OC(F)(F)F)C3)o2)NC1)c1cnc2cc(Cl)ccc2c1 [Example 52, 7-chloro-N-[(3R,6S)-6-{5-[(1s,3s)-3-(trifluoromethoxy)cyclobutyl]-1,3,4-oxadiazol-2-yl}piperidin-3-yl]quinoline-3-carboxamide] was tested, and the IC50 was 1 to 500 nM.
Work on O=C(N[C@@H]1CC[C@@H](c2nnc(OCCOC(F)(F)F)o2)NC1)c1ccc(Cl)c(Cl)c1 [Example 54, 3,4-dichloro-N-[(3R,6S)-6-[5-[2-(trifluoromethoxy)ethoxy]-1,3,4-oxadiazol-2-yl]-3-piperidyl]benzamide] yielded an IC50 of 500 to 2000 nM.
With O=C(N[C@H]1CO[C@H](c2nnc(OCCOC(F)(F)F)o2)OC1)c1cnc2cc(Cl)ccc2c1 [Example 55, 7-chloro-N-[trans-2-{5-[2-(trifluoromethoxy)ethoxy]-1,3,4-oxadiazol-2-yl}-1,3-dioxan-5-yl]quinoline-3-carboxamide] the IC50 was 1 to 500 nM.
